Reference: patent publication US10683453B2, “Organic compounds with soluble groups” (Merck Patent GmbH, priority 2014, dated 2020)

Assay: Determination of solubility in toluene
Assay type: physicochemical
Details: stirred at 60° C. for 1 h, cooled to room temperature, yes = clear solution lacking any large particles
Method: Determination of Solubility
In order to examine whether a material has a toluene solubility of 10 mg/ml or more, the procedure is as follows: 20 mg of material in solid form are initially charged in a sample bottle. At room temperature (20° C.), 2 ml of toluene are added. The bottle is closed and the contents are stirred at 60° C. on a heatable magnetic stirrer for 1 h. In the course of this, good thermal contact is ensured by means of an aluminium block having holes into which the bottles fit exactly. After 1 h, the bottle is removed and left to cool to room temperature. If a clear solution lacking any large particles is present in the bottle, at least 10 mg/ml of the material are soluble in toluene.
Solubilities with other solubility limits are determined in entirely the same way. The starting weight is also matched to 2 ml of solvent.

SMILES	Solubility in toluene > 2 mg/ml	Solubility in toluene > 5 mg/ml	Solubility in toluene > 10 mg/ml
N#Cc1ccc2c(c1)C1(c3cc(C#N)ccc3-2)c2ccccc2N(c2cc(-c3ccccc3)cc(-c3ccccc3)c2)c2ccccc21 [Compound 6a, 2′,7′-Cyano-10H-terphenyl-10H-spiro(acridine-9,9′-fluorene)]	yes	yes	no
CCCCCCc1cc(CCCCCC)cc(N2c3ccccc3C3(c4ccccc4C(=C(C#N)C#N)c4ccccc43)c3ccccc32)c1 [Compound 9a]	yes	yes	yes
N#CC(C#N)=C1c2ccccc2C2(c3ccccc31)c1ccccc1N(c1c(-c3ccccc3)cc(-c3ccccc3)cc1-c1ccccc1)c1ccccc12 [Compound 9e]	yes	yes	no
CCCCCCc1ccc2c(c1)c1cc(CCCCCC)ccc1n2-c1c(C#N)c(-n2c3ccc(CCCCCC)cc3c3cc(CCCCCC)ccc32)c(C#N)c(-n2c3ccc(CCCCCC)cc3c3cc(CCCCCC)ccc32)c1C#N [Compound 19d]	yes	yes	yes

Continued, values first:

Solubility in toluene > 2 mg/ml	Solubility in toluene > 5 mg/ml	Solubility in toluene > 10 mg/ml	SMILES
yes	no	no	N#Cc1c(-n2c3ccccc3c3ccccc32)c(C#N)c(-n2c3ccccc3c3ccccc32)c(-n2c3ccccc3c3ccccc32)c1-n1c2ccccc2c2ccccc21 [reference compound]
no	no	no	N#Cc1ccc2c(c1)C1(c3cc(C#N)ccc3-2)c2ccccc2N(c2ccccc2)c2ccccc21 [reference compound]
yes	no	no	N#CC(C#N)=C1c2ccccc2C2(c3ccccc31)c1ccccc1N(c1ccccc1)c1ccccc12 [reference compound]
